From the SangsterLogP compilation come the findings set out here.

As a reminder, the logD is the decadic logarithm of the distribution of all forms, ionised or not, between an organic phase and buffer at a given pH. Higher therefore signals a more lipophilic compound.

The nature of the data set: method code SF, from DOI: 10.1080/10826079508010421. The settings on record: pH 11.0.

The compound `NC1=NCC(COc2ccc([N+](=O)[O-])cc2)O1` (stereo not given) had a logD of 1.17.
Take `NC1=NCC(COc2ccccc2Cl)O1` (stereo not given): the logD turned out to be 1.77.
On to `NC1=NCC(COc2ccc(Cl)cc2)O1` (stereo not given), for which the log distribution coefficient (logD) stood at 2.
As to `Cc1ccccc1OCC1CN=C(N)O1` (stereo not given), the logD came out at 1.69.
Turning to `Cc1ccc(OCC2CN=C(N)O2)cc1` (stereo not given), the logD is 1.79.
In turn, `NC1=NCC(COc2ccc(N3CCOCC3)cc2)O1` (stereo not given) displayed a log distribution coefficient (logD) of 0.6.
Compound `CCOc1ccccc1OCC1CN=C(N)O1` (stereo not given) yielded a logD of 1.24.
`COc1ccccc1OCC1CN=C(N)O1` (stereo not given): the logD is 0.85.
`COc1ccc(OCC2CN=C(N)O2)cc1` (stereo not given) yielded a logD of 1.26.
For the compound `NC1=NCC(COc2ccccc2)O1` (stereo not given), the logD came out at 1.27.
